Measured values from patent publication US12492173B2, “Herbicidal substituted N-tetrazolyl aryl carboxamides” (Bayer Aktiengesellschaft, priority 2019, dated 2025).

Test system: Matricaria inodora
Experiment: Pre-emergence herbicidal action, MATIN
Type: in vivo
Details: dosage 320 g/ha, scored visually after 3 weeks vs untreated controls (100% = plants have died)
Procedure, shortened: (§1)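 Herbicidal activity is expressed in percent, scored by eye after a 3-week greenhouse period, with 0% matching untreated plants and 100% meaning death. Compounds, as wettable powders or emulsion concentrates, are applied pre-emergence to the covering soil.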

Row | Compound | herbicidal activity MATIN
1 | CSc1c(C(=O)Nc2nnnn2C)ccc(C(F)(F)F)c1C[S+](C)[O-] (stereo not drawn) [Example 1-162] | 100%
2 | CCn1nnnc1NC(=O)c1ccc(C(F)F)c(CS(C)(=O)=O)c1Cl [Example 2-322] | 90%
3 | CCn1nnnc1NC(=O)c1ccc(C(F)(F)F)c(CSC)c1Cl [Example 2-296] | 100%
4 | COCCSCc1c(C(F)(F)F)ccc(C(=O)Nc2nnnn2C)c1Cl [Example 1-305] | 100%
5 | CCn1nnnc1NC(=O)c1ccc(C(F)(F)F)c(CS(=O)(=O)CC)c1Br [Example 2-385] | 100%
6 | Cn1nnnc1NC(=O)c1ccc(C(F)(F)F)c(CSCC2CC2)c1Cl [Example 1-314] | 100%
7 | CCn1nnnc1NC(=O)c1ccc(C(F)(F)F)c(C[S+](C)[O-])c1Cl (stereo not drawn) [Example 2-297] | 100%
8 | CCSCc1c(C(F)(F)F)ccc(C(=O)Nc2nnnn2CC)c1Cl [Example 2-299] | 100%
9 | CCn1nnnc1NC(=O)c1ccc(C(F)(F)F)c(C[S+](C)[O-])c1SC (stereo not drawn) [Example 2-162] | 100%
10 | Cn1nnnc1NC(=O)c1ccc(C(F)(F)F)c(CSC2CC2)c1Cl [Example 1-302] | 100%
11 | CCSCc1c(C(F)F)ccc(C(=O)Nc2nnnn2CC)c1Cl [Example 2-323] | 100%
12 | Cn1nnnc1NC(=O)c1ccc(C(F)(F)F)c(CS(=O)(=O)CC2CC2)c1Cl [Example 1-316] | 100%

Test system: Veronica persica
Experiment: Pre-emergence herbicidal action, VERPE
Type: in vivo
Details: dosage 320 g/ha, scored visually after 3 weeks vs untreated controls (100% = plants have died)
Procedure, shortened: as §1

Row | Compound | herbicidal activity VERPE
13 | CSc1c(C(=O)Nc2nnnn2C)ccc(C(F)(F)F)c1C[S+](C)[O-] (stereo not drawn) [Example 1-162] | 90%
14 | CCn1nnnc1NC(=O)c1ccc(C(F)F)c(CS(C)(=O)=O)c1Cl [Example 2-322] | 100%
15 | CCn1nnnc1NC(=O)c1ccc(C(F)(F)F)c(CSC)c1Cl [Example 2-296] | 100%
16 | COCCSCc1c(C(F)(F)F)ccc(C(=O)Nc2nnnn2C)c1Cl [Example 1-305] | 100%
17 | CCn1nnnc1NC(=O)c1ccc(C(F)(F)F)c(CS(=O)(=O)CC)c1Br [Example 2-385] | 100%
18 | Cn1nnnc1NC(=O)c1ccc(C(F)(F)F)c(CSCC2CC2)c1Cl [Example 1-314] | 100%
19 | CCn1nnnc1NC(=O)c1ccc(C(F)(F)F)c(C[S+](C)[O-])c1Cl (stereo not drawn) [Example 2-297] | 100%
20 | CCSCc1c(C(F)(F)F)ccc(C(=O)Nc2nnnn2CC)c1Cl [Example 2-299] | 100%
21 | CCn1nnnc1NC(=O)c1ccc(C(F)(F)F)c(C[S+](C)[O-])c1SC (stereo not drawn) [Example 2-162] | 90%
22 | Cn1nnnc1NC(=O)c1ccc(C(F)(F)F)c(CSC2CC2)c1Cl [Example 1-302] | 100%
23 | CCSCc1c(C(F)F)ccc(C(=O)Nc2nnnn2CC)c1Cl [Example 2-323] | 100%
24 | Cn1nnnc1NC(=O)c1ccc(C(F)(F)F)c(CS(=O)(=O)CC2CC2)c1Cl [Example 1-316] | 100%

Test system: Abutilon theophrasti
Experiment: Post-emergence herbicidal action, ABUTH
Type: in vivo
Parameters: key: % herbicidal action vs untreated; 100 = plants died, 0 = like control
Details: Dosage 80 g/ha
Procedure, shortened: (§2)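 Percent herbicidal effect was rated visually about 3 weeks after treatment, relative to untreated plants (0% = like control, 100% = dead). Compounds, formulated as WP or EC, went on as aqueous spray (600–800 l/ha, 0.2% wetting agent) to one-leaf-stage plants 2–3 weeks post-sowing in sandy loam.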

Row | Compound | herbicidal action ABUTH
25 | CCn1nnnc1NC(=O)c1ccc(C(F)(F)F)c(C[S+](C)[O-])c1SC (stereo not drawn) [Example 2-162] | 100
26 | Cn1nnnc1NC(=O)c1ccc(C(F)(F)F)c(CS(=O)(=O)CC2CC2)c1Cl [Example 1-316] | 100

Same assay, conditions: post-emergence, dosage 80 g/ha

Row | Compound | herbicidal action ABUTH
27 | CSc1c(C(=O)Nc2nnnn2C)ccc(C(F)(F)F)c1C[S+](C)[O-] (stereo not drawn) [Example 1-162] | 100%
28 | CCn1nnnc1NC(=O)c1ccc(C(F)F)c(CS(C)(=O)=O)c1Cl [Example 2-322] | 100%
29 | CCn1nnnc1NC(=O)c1ccc(C(F)(F)F)c(CSC)c1Cl [Example 2-296] | 100%
30 | COCCSCc1c(C(F)(F)F)ccc(C(=O)Nc2nnnn2C)c1Cl [Example 1-305] | 100%
31 | CCn1nnnc1NC(=O)c1ccc(C(F)(F)F)c(CS(=O)(=O)CC)c1Br [Example 2-385] | 100%
32 | Cn1nnnc1NC(=O)c1ccc(C(F)(F)F)c(CSCC2CC2)c1Cl [Example 1-314] | 100%
33 | CCn1nnnc1NC(=O)c1ccc(C(F)(F)F)c(C[S+](C)[O-])c1Cl (stereo not drawn) [Example 2-297] | 80%
34 | CCSCc1c(C(F)(F)F)ccc(C(=O)Nc2nnnn2CC)c1Cl [Example 2-299] | 100%
35 | Cn1nnnc1NC(=O)c1ccc(C(F)(F)F)c(CSC2CC2)c1Cl [Example 1-302] | 100%
36 | CCSCc1c(C(F)F)ccc(C(=O)Nc2nnnn2CC)c1Cl [Example 2-323] | 100%

Test system: Alopecurus myosuroides
Experiment: Post-emergence herbicidal action, ALOMY
Type: in vivo
Parameters: key: % herbicidal action vs untreated; 100 = plants died, 0 = like control
Details: Dosage 80 g/ha
Procedure, shortened: as §2

Row | Compound | herbicidal action ALOMY
37 | CCn1nnnc1NC(=O)c1ccc(C(F)(F)F)c(C[S+](C)[O-])c1SC (stereo not drawn) [Example 2-162] | 90
38 | Cn1nnnc1NC(=O)c1ccc(C(F)(F)F)c(CS(=O)(=O)CC2CC2)c1Cl [Example 1-316] | 90

Same assay, conditions: post-emergence, dosage 80 g/ha

Row | Compound | herbicidal action ALOMY
39 | CSc1c(C(=O)Nc2nnnn2C)ccc(C(F)(F)F)c1C[S+](C)[O-] (stereo not drawn) [Example 1-162] | 100%
40 | CCn1nnnc1NC(=O)c1ccc(C(F)F)c(CS(C)(=O)=O)c1Cl [Example 2-322] | 80%
41 | CCn1nnnc1NC(=O)c1ccc(C(F)(F)F)c(CSC)c1Cl [Example 2-296] | 100%
42 | COCCSCc1c(C(F)(F)F)ccc(C(=O)Nc2nnnn2C)c1Cl [Example 1-305] | 100%
43 | CCn1nnnc1NC(=O)c1ccc(C(F)(F)F)c(CS(=O)(=O)CC)c1Br [Example 2-385] | 80%
44 | Cn1nnnc1NC(=O)c1ccc(C(F)(F)F)c(CSCC2CC2)c1Cl [Example 1-314] | 100%
45 | CCn1nnnc1NC(=O)c1ccc(C(F)(F)F)c(C[S+](C)[O-])c1Cl (stereo not drawn) [Example 2-297] | 100%
46 | CCSCc1c(C(F)(F)F)ccc(C(=O)Nc2nnnn2CC)c1Cl [Example 2-299] | 90%
47 | Cn1nnnc1NC(=O)c1ccc(C(F)(F)F)c(CSC2CC2)c1Cl [Example 1-302] | 100%
48 | CCSCc1c(C(F)F)ccc(C(=O)Nc2nnnn2CC)c1Cl [Example 2-323] | 80%

Test system: Echinochloa crus-galli
Experiment: Post-emergence herbicidal action, ECHCG
Type: in vivo
Parameters: key: % herbicidal action vs untreated; 100 = plants died, 0 = like control
Details: Dosage 80 g/ha
Procedure, shortened: as §2

Row | Compound | herbicidal action ECHCG
49 | CCn1nnnc1NC(=O)c1ccc(C(F)(F)F)c(C[S+](C)[O-])c1SC (stereo not drawn) [Example 2-162] | 90
50 | Cn1nnnc1NC(=O)c1ccc(C(F)(F)F)c(CS(=O)(=O)CC2CC2)c1Cl [Example 1-316] | 100

Same assay, conditions: post-emergence, dosage 80 g/ha

Row | Compound | herbicidal action ECHCG
51 | CSc1c(C(=O)Nc2nnnn2C)ccc(C(F)(F)F)c1C[S+](C)[O-] (stereo not drawn) [Example 1-162] | 100%
52 | CCn1nnnc1NC(=O)c1ccc(C(F)F)c(CS(C)(=O)=O)c1Cl [Example 2-322] | 100%
53 | CCn1nnnc1NC(=O)c1ccc(C(F)(F)F)c(CSC)c1Cl [Example 2-296] | 90%
54 | COCCSCc1c(C(F)(F)F)ccc(C(=O)Nc2nnnn2C)c1Cl [Example 1-305] | 100%
55 | CCn1nnnc1NC(=O)c1ccc(C(F)(F)F)c(CS(=O)(=O)CC)c1Br [Example 2-385] | 90%
56 | Cn1nnnc1NC(=O)c1ccc(C(F)(F)F)c(CSCC2CC2)c1Cl [Example 1-314] | 100%
57 | CCn1nnnc1NC(=O)c1ccc(C(F)(F)F)c(C[S+](C)[O-])c1Cl (stereo not drawn) [Example 2-297] | 100%
58 | CCSCc1c(C(F)(F)F)ccc(C(=O)Nc2nnnn2CC)c1Cl [Example 2-299] | 90%
59 | Cn1nnnc1NC(=O)c1ccc(C(F)(F)F)c(CSC2CC2)c1Cl [Example 1-302] | 100%
60 | CCSCc1c(C(F)F)ccc(C(=O)Nc2nnnn2CC)c1Cl [Example 2-323] | 100%

Test system: Setaria viridis
Experiment: Post-emergence herbicidal action, SETVI
Type: in vivo
Parameters: key: % herbicidal action vs untreated; 100 = plants died, 0 = like control
Details: Dosage 80 g/ha
Procedure, shortened: as §2

Row | Compound | herbicidal action SETVI
61 | CCn1nnnc1NC(=O)c1ccc(C(F)(F)F)c(C[S+](C)[O-])c1SC (stereo not drawn) [Example 2-162] | 90
62 | Cn1nnnc1NC(=O)c1ccc(C(F)(F)F)c(CS(=O)(=O)CC2CC2)c1Cl [Example 1-316] | 90

Same assay, conditions: post-emergence, dosage 80 g/ha

Row | Compound | herbicidal action SETVI
63 | CSc1c(C(=O)Nc2nnnn2C)ccc(C(F)(F)F)c1C[S+](C)[O-] (stereo not drawn) [Example 1-162] | 100%
64 | CCn1nnnc1NC(=O)c1ccc(C(F)F)c(CS(C)(=O)=O)c1Cl [Example 2-322] | 100%
65 | CCn1nnnc1NC(=O)c1ccc(C(F)(F)F)c(CSC)c1Cl [Example 2-296] | 90%
66 | COCCSCc1c(C(F)(F)F)ccc(C(=O)Nc2nnnn2C)c1Cl [Example 1-305] | 100%
67 | CCn1nnnc1NC(=O)c1ccc(C(F)(F)F)c(CS(=O)(=O)CC)c1Br [Example 2-385] | 90%
68 | Cn1nnnc1NC(=O)c1ccc(C(F)(F)F)c(CSCC2CC2)c1Cl [Example 1-314] | 100%
69 | CCn1nnnc1NC(=O)c1ccc(C(F)(F)F)c(C[S+](C)[O-])c1Cl (stereo not drawn) [Example 2-297] | 100%
70 | CCSCc1c(C(F)(F)F)ccc(C(=O)Nc2nnnn2CC)c1Cl [Example 2-299] | 100%
71 | Cn1nnnc1NC(=O)c1ccc(C(F)(F)F)c(CSC2CC2)c1Cl [Example 1-302] | 100%
72 | CCSCc1c(C(F)F)ccc(C(=O)Nc2nnnn2CC)c1Cl [Example 2-323] | 100%
